Source: patent US20020035061A1, “COMPOSITIONS AND METHODS FOR TREATING INFECTIONS USING CATIONIC PEPTIDES ALONE OR IN COMBINATION WITH ANTIBIOTICS” (priority 1996, published 2002)
Read-outs that look alike come from different tables or passages of the source. Peptide text beside a SMILES is read from it.

Experiments:
bacterial isolates = test: microbe, parasite or virus in culture; format: cell-based; conditions: for FIC: peptide + Ciprofloxacin
[1] = test system: microorganisms with acquired resistance; test: microbe, parasite or virus in culture; format: cell-based; conditions: for Peptide MIC Alone: Ciprofloxacin section
S. aureus [2] = test: microbe, parasite or virus in culture; format: cell-based
K. pneumoniae = format: cell-based
[3] = test system: MSSA (Smith, ATCC # 19640); test: In vivo efficacy, MSSA infection; design: species or system S. aureus; conditions: formulation D, 60 min post-infection, end of eight day observation
E. faecium = format: cell-based; conditions: for Peptide MIC values: agarose dilution
S. maltophilia = format: cell-based
E. coli = format: cell-based; conditions: for Peptide MIC values: agarose dilution
E. cloacae = format: cell-based; conditions: E. cloacae strain ECL007
P. aeruginosa = format: cell-based; conditions: for Peptide MIC values: agarose dilution
S. aureus [4] = format: cell-based; conditions: for Peptide MIC values: agarose dilution
E. faecalis = format: cell-based
S. marcescens = format: cell-based; conditions: for Peptide MIC values: agarose dilution, S. marcescens SM82
S. epidermidis = format: cell-based
A. calcoaceticus = format: cell-based
S. pneumoniae = test: Agarose dilution assay (MIC); format: cell-based; conditions: agarose dilution

| Molecule | MIC (K. pneumoniae; K. pneumoniae strain KP002) [µg/mL] | % Survival ([3]; 12 mg/kg ip) [%] | % Survival ([3]; 18 mg/kg ip) [%] | MIC (E. faecium; E. faecium strain EFM002) [µg/mL] | MIC (S. maltophilia; S. maltophilia strain SMA001) [µg/mL] | MIC (E. coli; E. coli strain ECO003) [µg/mL] | MIC (E. cloacae) [µg/mL] | MIC (P. aeruginosa; P. aeruginosa strain PA004) [µg/mL] | MIC (S. aureus [4]; S. aureus strain SA009) [µg/mL] | MIC (E. faecalis; E. faecalis strain EFS004) [µg/mL] | MIC (S. marcescens; S. marcescens strain SMS004) [µg/mL] | MIC (K. pneumoniae; K. pneumoniae strain KP001) [µg/mL] | MIC (S. epidermidis; S. epidermidis strain SE002) [µg/mL] | MIC (S. maltophilia; S. maltophilia strain SMA002) [µg/mL] | MIC (E. faecalis; E. faecalis strain EFS002) [µg/mL] | MIC (A. calcoaceticus; A. calcoaceticus strain AC002) [µg/mL] | MIC (S. marcescens; S. marcescens strain SMS003) [µg/mL] | MIC (E. faecium; E. faecium strain EFM001) [µg/mL] | MIC (A. calcoaceticus; A. calcoaceticus strain AC001) [µg/mL] | also measured |
| --- | --- | --- | --- | --- | --- | --- | --- | --- | --- | --- | --- | --- | --- | --- | --- | --- | --- | --- | --- | --- |
| CC[C@H](C)[C@H](NC(=O)[C@H](CC(C)C)NC(=O)[C@H](C)NC(=O)[C@@H]1CCCN1C(=O)[C@H](CC(C)C)NC(=O)[C@H](C)NC(=O)[C@@H](NC(=O)[C@@H](NC(=O)[C@@H](NC(=O)[C@@H](NC(=O)[C@H](CCCCN)NC(=O)[C@H](CCCCN)NC(=O)[C@H](CC(C)C)NC(=O)[C@@H](NC(=O)[C@H](CCCCN)NC(=O)[C@@H](NC(=O)[C@H](CC(C)C)NC(=O)[C@H](CC(N)=O)NC(=O)[C@H](CCCCN)NC(=O)[C@@H](NC(=O)[C@H](Cc1ccccc1)NC(=O)[C@H](CO)NC(=O)[C@H](CCCCN)NC(=O)[C@H](Cc1c[nH]c2ccccc12)NC(=O)[C@@H](N)CCCCN)[C@@H](C)CC)[C@@H](C)O)C(C)C)C(C)C)C(C)C)[C@@H](C)O)[C@@H](C)O)C(=O)N[C@@H](CO)C(=O)O [MBI 29A2] (H-KWKSFIKNLTKVLKKVVTTALPALIS-OH; N-terminus and C-terminus assumed) |  |  |  |  |  |  |  |  |  |  |  |  |  |  |  |  |  |  |  | Ciprofloxacin MIC + Peptide (bacterial isolates; P. aeruginosa PA24): 16 µg/mL; Peptide MIC + Ciprofloxacin (bacterial isolates; P. aeruginosa PA24): 8 µg/mL; Ciprofloxacin MIC + Peptide (bacterial isolates; S. aureus SA10): 0.5 µg/mL; Peptide MIC + Ciprofloxacin (bacterial isolates; S. aureus SA10): 2 µg/mL; Ciprofloxacin MIC + Peptide (bacterial isolates; S. aureus SA93): 8 µg/mL; Peptide MIC + Ciprofloxacin (bacterial isolates; S. aureus SA93): 0.5 µg/mL; FIC (bacterial isolates; P. aeruginosa PA24): 0.63; FIC (bacterial isolates; S. aureus SA10): 0.52; FIC (bacterial isolates; S. aureus SA93): 0.50; Ciprofloxacin MIC + Peptide ([1]; P. aeruginosa PA41): 2 µg/mL; Peptide MIC + Ciprofloxacin ([1]; P. aeruginosa PA41): 4 µg/mL; Peptide MIC Alone ([1]; P. aeruginosa PA41): 8 µg/mL; Ciprofloxacin MIC + Peptide ([1]; P. aeruginosa PA77): 1 µg/mL; Peptide MIC + Ciprofloxacin ([1]; P. aeruginosa PA77): 8 µg/mL; Peptide MIC Alone ([1]; P. aeruginosa PA77): 16 µg/mL; Ciprofloxacin MIC + Peptide (S. aureus [2]; S. aureus SA10): 0.5 µg/mL; Peptide MIC + Ciprofloxacin (S. aureus [2]; S. aureus SA10): 2 µg/mL; Ciprofloxacin MIC + Peptide (S. aureus [2]; S. aureus SA25): 0.5 µg/mL; Peptide MIC + Ciprofloxacin (S. aureus [2]; S. aureus SA25): 1 µg/mL |
| IKKWPWWPWRRK [MBI 11G2CN] | 128 | 10 | 0 | 4 | >128 | 16 | >128 | >128 | 2 | 16 | >128 |  |  |  |  |  |  |  |  | % Survival ([3]; 24 mg/kg ip): 40% |
| ILKKWPWWWRRK [MBI 11G5CN] |  |  |  | 8 |  | 16 | >128 |  |  |  | >128 | >128 | 2 | 64 | 16 | 4 |  |  |  | MIC (P. aeruginosa; P. aeruginosa strain PA003): >128 µg/mL; MIC (S. aureus [4]; S. aureus strain SA012): 4 µg/mL |
| ILKKWVWWVWRRK [MBI 11F1CN] | 32 |  |  |  |  | 8 | >128 | 64 | 2 | 16 |  |  |  |  |  |  | >128 |  |  | MIC (E. faecium; E. faecium strain EFM003): 2 µg/mL; Peptide MIC values (E. faecium): 8 µg/mL; Peptide MIC values (E. coli; E. coli ATCC 25922): 8 µg/mL; Peptide MIC values (E. coli; E. coli NCTC 10418): 2 µg/mL; Peptide MIC values (S. pneumoniae; S. pneumoniae 406LE8): 128 µg/mL; Peptide MIC values (S. pneumoniae; S. pneumoniae 60120): 128 µg/mL; Peptide MIC values (S. pneumoniae; S. pneumoniae ATCC 49619): 64 µg/mL; Peptide MIC values (P. aeruginosa; P. aeruginosa ATCC 27853): 64 µg/mL; Peptide MIC values (P. aeruginosa; P. aeruginosa NCTC 10662): 64 µg/mL; Peptide MIC ([1]; S. aureus, combination with Mupirocin, in µg/mL): 8; Peptide MIC values (S. aureus [4]; S. aureus MRSA9): 2 µg/mL; Peptide MIC values (S. aureus [4]; S. aureus MRSA13): 16 µg/mL; Peptide MIC values (S. aureus [4]; S. aureus MRSA17): 2 µg/mL; MIC (S. marcescens; S. marcescens strain SBSM1): >128 µg/mL; Peptide MIC values (S. marcescens): >128 µg/mL |
| ILKKWWWPWRRK [MBI 11G4CN] |  | 0 | 0 |  |  |  | >128 | >128 |  |  |  | >128 |  | 64 | 32 | 4 | >128 |  |  | MIC (S. epidermidis; S. epidermidis strain SE010): 2 µg/mL; % Survival ([3]; 24 mg/kg ip): 20%; MIC (E. faecium; E. faecium strain EFM003): 1 µg/mL; MIC (E. coli; E. coli strain ECO005): 32 µg/mL; MIC (S. aureus [4]; S. aureus strain SA004): 1 µg/mL |
| ILKNPNNPWRR [MBI 11G7ACN] | >32 |  |  |  | 32 |  | >32 |  |  |  | >32 |  | 4 |  |  | 4 |  | 8 |  | MIC (E. coli; E. coli strain ECO002): 16 µg/mL; MIC (P. aeruginosa; P. aeruginosa strain PA006): >32 µg/mL; MIC (S. aureus [4]; S. aureus strain SA010): 1 µg/mL; MIC (E. faecalis; E. faecalis strain EFS008): 32 µg/mL |
| ILKWPWWPWRK [MBI 11B5CN] |  |  |  | 1 |  |  | >128 | >128 |  |  |  | 16 |  | 64 | 16 | 4 | >128 |  |  | MIC (S. epidermidis; S. epidermidis strain SE010): 1 µg/mL; MIC (E. coli; E. coli strain ECO005): 16 µg/mL; MIC (S. aureus [4]; S. aureus strain SA005): 2 µg/mL; MIC (S. aureus [4]; S. aureus strain SA014): 2 µg/mL; MIC (S. aureus [4]; S. aureus strain SA093): 1 µg/mL; MIC (E. faecalis; E. faecalis strain EFS001): 2 µg/mL; MIC (E. faecalis; E. faecalis strain EFS008): 8 µg/mL |
| ILRRWPWWPWRRK [MBI 11B1CN] | 64 | 0 | 30 | 2 | 64 | 8 | >128 |  |  | 8 | >128 |  |  |  |  |  |  |  | 32 | MIC (S. epidermidis; S. epidermidis strain SE001): 2 µg/mL; % Survival ([3]; 24 mg/kg ip): 90%; MIC (P. aeruginosa; P. aeruginosa strain PA005): >128 µg/mL; MIC (S. aureus [4]; S. aureus strain SA005): 2 µg/mL |
| ILRRWPWWPWRRR [MBI 11B9ACN] | 32 |  |  |  | 16 | 8 | >128 |  |  | 8 | >128 |  | 2 |  |  |  |  | 4 | 32 | MIC (P. aeruginosa; P. aeruginosa strain PA005): >128 µg/mL; MIC (S. aureus [4]; S. aureus strain SA019): 2 µg/mL |
| ILWPWWPWRRK [MBI 11B8CN] |  | 0 | 10 |  |  |  | >128 |  | 4 |  |  | >128 | 4 | 128 | 32 |  | >128 | 16 | >128 | Peptide MIC values (E. faecium): 8 µg/mL; MIC (E. coli; E. coli strain ECO002): 16 µg/mL; Peptide MIC values (E. coli; E. coli ATCC 25922): 32 µg/mL; Peptide MIC values (E. coli; E. coli NCTC 10418): 4 µg/mL; Peptide MIC values (S. pneumoniae; S. pneumoniae 406LE8): >128 µg/mL; Peptide MIC values (S. pneumoniae; S. pneumoniae 60120): >128 µg/mL; Peptide MIC values (S. pneumoniae; S. pneumoniae ATCC 49619): 128 µg/mL; MIC (P. aeruginosa; P. aeruginosa strain PA005): >128 µg/mL; Peptide MIC values (P. aeruginosa; P. aeruginosa ATCC 27853): >128 µg/mL; Peptide MIC values (P. aeruginosa; P. aeruginosa NCTC 10662): >128 µg/mL; Peptide MIC values (S. aureus [4]; S. aureus MRSA9): 2 µg/mL; Peptide MIC values (S. aureus [4]; S. aureus MRSA13): 32 µg/mL; Peptide MIC values (S. aureus [4]; S. aureus MRSA17): 4 µg/mL; Peptide MIC values (S. marcescens): >128 µg/mL |
| LKKWPWWPWRRK [MBI 11D1CN] | 64 |  |  |  | 64 |  | >128 |  |  |  |  |  |  |  | 32 |  | >128 | 16 | >128 | MIC (S. epidermidis; S. epidermidis strain SE010): 8 µg/mL; MIC (E. coli; E. coli strain ECO002): 16 µg/mL; MIC (P. aeruginosa; P. aeruginosa strain PA003): >128 µg/mL; MIC (S. aureus [4]; S. aureus strain SA004): 2 µg/mL |
| WWKKWPWWPWRRK [MBI 11C5CN] | 16 |  |  |  |  |  | >128 |  | 2 |  | >128 |  | 2 | 16 | 16 |  |  |  | 32 | MIC (E. faecium; E. faecium strain EFM003): 2 µg/mL; MIC (E. coli; E. coli strain ECO001): 8 µg/mL; MIC (P. aeruginosa; P. aeruginosa strain PA003): 64 µg/mL |
